Results on 26 compounds are retold here after patent publication US20050020576A1, “Kappa agonist compounds and pharmaceutical formulations thereof” (priority 1996, published 2005).

The structures appear in SMILES notation. Values joined by “and” are separate entries in the source; they are usually repeats but may differ in a detail not shown here. Equal entries are not always repeated. Structures can show the parent of a compound that is named as a salt. Where two headings read alike, the source gives them in different places.

In data set [1] the target is cloned human kappa receptor (Homo sapiens, UniProt P41145). Kind of data set: biochemical. Format: binding.
Data set [2] has as its system formalin-induced flinching. Kind of data set: animal or person. Format: in vivo, male Sprague-Dawley rats. Conditions: for inhibition in vivo at 0.3 µM: Rattus norvegicus, read-out: Formalin (% A @ 300 nM) i. paw.
The mark [3] stands for this setting: Table IA, read-out: Ki(nM) (3H)-Diprenorphin.

The term Ki denotes the dissociation constant of the complex between target and ligand, obtained from inhibition or displacement. The melting point is the temperature, or range, at which the solid turns liquid.

Sequence of cloned human kappa receptor (P41145 whole entry): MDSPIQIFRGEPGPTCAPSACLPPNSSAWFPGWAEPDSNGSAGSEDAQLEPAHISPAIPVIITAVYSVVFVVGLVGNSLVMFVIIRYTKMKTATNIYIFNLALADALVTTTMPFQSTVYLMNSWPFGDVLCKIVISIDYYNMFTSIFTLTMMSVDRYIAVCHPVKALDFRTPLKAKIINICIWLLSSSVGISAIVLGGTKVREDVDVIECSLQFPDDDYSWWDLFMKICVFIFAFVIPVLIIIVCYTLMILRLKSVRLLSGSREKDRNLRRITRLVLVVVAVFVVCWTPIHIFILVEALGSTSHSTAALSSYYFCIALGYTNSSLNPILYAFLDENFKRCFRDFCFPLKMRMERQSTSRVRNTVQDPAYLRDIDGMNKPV

In data set [1] (Ki, nM 3H-Diprenorphin), `COC(=O)N1CCN(C(=O)Cc2ccc(Cl)c(Cl)c2)C(CN2CCC[C@H]2COC(=O)Cc2ccc(Cl)c(Cl)c2)C1` (mixture of isomers) [Example 1k, Methyl-4-[(3,4-dichlorophenyl)acetyl]-3-(R,S)-[(2-(S)-pyrrolidinemethyl-3′,4′-dichlorophenyl acetate)methyl]-1-piperazinecarboxylate hydrochloride] yielded an inhibition constant (Ki) of 51.5 nM. Moreover, the inhibition in vivo at 0.3 µM in data set [2] came out at 95%.

For `CS(=O)(=O)N1CCN(C(=O)Cc2ccc(Cl)c(Cl)c2)C(CN2CC[C@H](O)C2)C1` (mixture of isomers) [Example 1ll, 4-Methylsulphonyl-1-[(3,4-dichlorophenyl)acetyl]-2-(R,S)-[(3-(S)-hydroxy-1-pyrrolidinyl)methyl]piperazine hydrochloride], the Ki in data set [1] (Ki, nM 3H-Diprenorphin) came to 2.86 nM. Moreover, the inhibition in vivo at 0.3 µM in data set [2] was determined as 52%.

As to `COC(=O)N1CCN(C(=O)Cc2ccc(C(F)(F)F)cc2[N+](=O)[O-])C(CN2CCC[C@H]2CO)C1` (mixture of isomers) [Example 1m, Methyl-4-[(2-nitro-4-α,α,α-trifluoromethylphenyl)acetyl]-3-(R,S)-[(2-(S)-pyrrolidinemethanol)methyl]-1-piperazinecarboxylate hydrochloride], in data set [1] (Ki, nM 3H-Diprenorphin), the Ki stood at 49.5 nM. For the same compound, the “Formalin A50 mg/kg s.c.” value in data set [2] (rat, in vivo, sc) is reported as 1.7 mg/kg.

Regarding `COC(=O)N1CCN(C(=O)Cc2ccc(S(C)(=O)=O)cc2)C(CN2CCC[C@H]2CO)C1` (mixture of isomers) [Example 1o, Methyl-4-[(4-methylsulphonylphenyl)acetyl]-3-(R,S)-[(2-(S)-pyrrolidinemethanol)methyl]-1-piperazinecarboxylate hydrochloride], the Ki in data set [1] (setting [3]) was 133 nM. For the same compound, the inhibition in vivo at 0.3 µM in data set [2] came to 41%.

Consider `COC(=O)N1CCN(C(=O)Cc2ccc(Cl)c(Cl)c2)C(CN2CC[C@H](OC(=O)Cc3ccc(Cl)c(Cl)c3)C2)C1` (mixture of isomers) [Example 1q, Methyl-4-[(3,4-dichlorophenyl)acetyl]-2-(R,S)-[3-(S)-(3′,4′-dichlorophenyl acetate)-1-(pyrrolidinyl)methyl]-1-piperazinecarboxylate hydrochloride], for which the Ki in data set [1] (Ki, nM 3H-Diprenorphin) amounted to 5.2 nM. For the same compound, the inhibition in vivo at 0.3 µM in data set [2] came out at 98%.

`CC(=O)N1CCN(C(=O)Cc2ccc(Cl)c(Cl)c2)C(CN2CC[C@H](OC(=O)Cc3ccc(Cl)c(Cl)c3)C2)C1` (mixture of isomers) [Example 1w, 4-Acetyl-1-[(3,4-dichlorophenyl)acetyl]-2-(R,S)-[3-(S)-(3′,4′-dichlorophenyl acetate)-1-(pyrrolidinyl)methyl]piperazine hydrochloride]: the Ki in data set [1] (setting [3]) worked out at 1160 nM. For the same compound, in data set [2], the inhibition in vivo at 0.3 µM is 60%.

Turning to `CC(=O)N1CCN(C(=O)Cc2ccc(Cl)c(Cl)c2)C(CN2CCC[C@H]2CO)C1` (mixture of isomers) [Example 1z, 4-Acetyl-1-[(3,4-dichlorophenyl)acetyl]-2-(R,S)-[(2-(S)-pyrrolidinemethanol)methyl]piperazine hydrochloride], in data set [1] (setting [3]), the Ki was determined as 102 nM. The inhibition in vivo at 0.3 µM in data set [2] is 71%.

Turning to `COC(=O)N1CCN(C(=O)Cc2ccc(C(F)(F)F)cc2N(S(C)(=O)=O)S(C)(=O)=O)C(CN2CCCC2)C1` (racemic) (as salt: hydrochloride) [Example 1b, Methyl-4-[(2-[N,N-bis-methylsulfonamido]-4-trifluoromethyphenyl)acetyl]-3-(R,S)-[(1-pyrrolidinyl)-methyl]-1-piperazinecarboxylate dihydrochloride], the melting point is 155 to 160 °C.

In the case of `COC(=O)N1CCN(C(=O)Cc2ccccc2N(S(C)(=O)=O)S(C)(=O)=O)C(CN2CCCC2)C1` (racemic) (as salt: hydrochloride) [Example 1d, Methyl-4-[(2-[N,N-bis-methylsulfonamido]phenyl)acetyl]-3-(R,S)-[(1-pyrrolidinyl)methyl]-1-piperazinecarboxylate hydrochloride], the melting point was in the range of 145 to 150 °C.

`CNS(=O)(=O)c1ccccc1CC(=O)N1CCN(C(=O)OC)CC1CN1CCCC1` (racemic) (as salt: hydrochloride) [Example 1e, Methyl-4-[(2-[N-methylamino)sulfamyl]phenyl)acetyl]-3-(R,S)-[(1-pyrrolidinyl)methyl]-1-piperazinecarboxylate hydrochloride] displayed a melting point of 155 to 160 °C.

The compound `CNS(=O)(=O)c1ccc(CC(=O)N2CCN(C(=O)OC)CC2CN2CCCC2)cc1` (racemic) (as salt: hydrochloride) [Example 1f, Methyl-4-[-4-[N-methylamino)sulfamyl]phenyl)acetyl]-3-(R,S)-[(1-pyrrolidinyl)methyl]-1-piperazinecarboxylate hydrochloride] displayed a melting point of 135 to 140 °C.

In turn, `O=C(Cc1ccc(C(F)(F)F)cc1)N1CCN(C(=O)C(F)(F)F)CC1CN1CCCC1` (racemic) (as salt: hydrochloride) [Example 1h, 4-Trifluoroacetyl-1-[(-4-trifluoromethylphenyl)acetyl]-2-(R,S)-(1-pyrrolidinyl)methyl]piperazine hydrochloride] gave a melting point of 140 to 145 °C.

The compound `CN(C(=O)Cc1ccc(Cl)c(Cl)c1)[C@H](CN1CCCC1)c1cccc(NS(N)(=O)=O)c1` (racemic) (as salt: hydrochloride) [Example 3c, 2-(3,4-Dichlorophenyl)-N-methyl-N-[(1R,S)-1-(3-sulfamidophenyl)-2-(1-pyrrolidinyl)ethyl]acetamide hydrochloride] came in with a melting point of 198 to 200 °C.

The compound `COc1ccc(C(CN2CCCC2)N(C)C(=O)Cc2ccccc2NS(C)(=O)=O)cc1` (racemic) (as salt: salt) [Example 128] yielded a melting point of 170 to 172 °C.

Compound `CNS(=O)(=O)c1ccccc1CC(=O)N(C)C(CN1CCCC1)c1ccccc1F` (racemic) (as salt: salt) [Example 147] displayed a melting point of 232 to 234 °C.

Consider `COc1cccc(C(CN2CCCC2)N(C)C(=O)Cc2ccccc2NS(C)(=O)=O)c1` (racemic) (as salt: sulfonic acid salt) [Example 3uu, (R,S)-1-[2-(Methanesulfonylamino)phenyl-N-methylacetamido]-1-(3-methoxyphenyl)-2-(1-pyrrolidino)-ethane, methanesulfonic acid salt], for which the melting point is 135 °C (dec.).

In turn, `CN(C(=O)Cc1ccccc1NS(C)(=O)=O)C(CN1CCCC1)c1cccc(O)c1` (racemic) (as salt: sulfonic acid salt) [Example 3vv, (R,S)-1-[2-(Methanesulfonylamino)phenyl-N-methylacetamido]-1-(3-hydroxyphenyl)-2-(1-pyrrolidino)-ethane, methanesulfonic acid salt] returned a melting point of 232 to 234 °C.

On to `CC(=O)N1CCN(C(=O)Cc2ccc(C(F)(F)F)cc2)C(CN2CCCC2)C1` (racemic) [(R,S-10b), hydrochloride], for which the Ki in data set [1] (Ki, nM 3H-Diprenorphin) is 26 nM and 24 nM. Also, in data set [2] (rat, in vivo), the “Late Phase Formalin, % @ 300; i.paw” value came out at 89% @ 300.

Regarding `COC(=O)N1CCN(C(=O)Cc2ccc(C(F)(F)F)cc2NCC(=O)O)C(CN2CCCC2)C1` (racemic) [Example 1a, Methyl-4-[-2-glycyl-4-(trifluoromethylphenyl)acetyl]-3-(R,S)-[(1-pyrrolidinyl)-methyl]-1-piperazinecarboxylate], the melting point lay within 165 to 170 °C. Besides, the Ki in data set [1] (setting [3]) amounted to 248 nM.

In data set [1] (Ki, nM 3H-Diprenorphin), `COC(=O)N1CCN(C(=O)Cc2ccccc2N(S(C)(=O)=O)S(C)(=O)=O)C(CN2CCCC2)C1` (racemic) [Example 1d, Methyl-4-[(2-[N,N-bis-methylsulfonamido]phenyl)acetyl]-3-(R,S)-[(1-pyrrolidinyl)methyl]-1-piperazinecarboxylate hydrochloride] registered a Ki of 7.6 nM. The inhibition in vivo at 0.3 µM in data set [2] came to 77%.

`CNS(=O)(=O)c1ccccc1CC(=O)N1CCN(C(=O)OC)CC1CN1CCCC1` (racemic) [Example 1e, Methyl-4-[(2-[N-methylamino)sulfamyl]phenyl)acetyl]-3-(R,S)-[(1-pyrrolidinyl)methyl]-1-piperazinecarboxylate hydrochloride]: the affinity in data set [1] (Ki, nM 3H-Diprenorphin), expressed as Ki, was 14 nM. The inhibition in vivo at 0.3 µM in data set [2] was 55%.

In the case of `O=C(Cc1ccc(C(F)(F)F)cc1)N1CCN(C(=O)C(F)(F)F)CC1CN1CCCC1` (racemic) [Example 1h, 4-Trifluoroacetyl-1-[(-4-trifluoromethylphenyl)acetyl]-2-(R,S)-(1-pyrrolidinyl)methyl]piperazine hydrochloride], in data set [1] (Ki, nM 3H-Diprenorphin), the Ki amounted to 50 nM. For the same compound, the inhibition in vivo at 0.3 µM in data set [2] turned out to be 100%.

For the compound `CNS(=O)(=O)c1cc(CC(=O)N(C)[C@@H]2CCCC[C@H]2N2CCCC2)ccc1F.Cl` (racemic) [Example 4i, (±)-trans-4-Fluoro-3-methylsulfamoyl-N-methyl-N-[2-(1-pyrrolidinyl)cyclohexyl]phenylacetamide hydrochloride], the melting point was 265 to 267 °C. Also, in data set [1], the “[3H]-Diprenorphin, % @ 1 μM” value worked out at 31% @ 1 μM.

With `CN(C(=O)Cc1ccc(Cl)c(Cl)c1)[C@@H]1c2cc(N(CC(=O)O)CC(=O)O)ccc2CC[C@H]1N1CCCC1` (relative stereo) (as salt: HCl), the melting point was 160 °C (dec.).

As to `CNS(=O)(=O)c1cccc(CC(=O)N(C)[C@H](CN2CCCC2)c2ccccc2)c1.Cl` [Example 3q, 3-(N-Methylsulfamoyl)-phenyl-N-methyl-N-[(1S)-1-phenyl-2-(1-pyrrolidinyl)ethyl]acetamide hydrochloride], the melting point was > 250 °C (dec.). Further, affinity in data set [1] (Ki (nM) [3H]-Diprenorphin κ) was put at a Ki of 3.2 nM.

With `CN(C(=O)C(c1ccccc1)c1ccccc1)[C@H](CN1CC[C@H](O)C1)c1ccccc1` [III-43, reference compound], the “Late Phase Formalin A50, mg/ms (i-paw)” value in data set [2] (rat, in vivo) was 59 mg/ms (i-paw) 28 mg/kg (sc). The “Late Phase Formalin A50, mg/kg (sc)” value in data set [2] (rat, in vivo, sc) was 59 mg/ms (i-paw) 28 mg/kg (sc).
